Source: patent US20220054640A1, “COMPOSITIONS AND METHODS FOR THE DELIVERY OF THERAPEUTIC AGENTS ACROSS THE ROUND WINDOW MEMBRANE” (Decibel Therapeutics, Inc., priority 2018, published 2022)
Like-named read-outs stand apart in the source and are kept apart here. Ends that are not written are not given here. Peptide text beside a SMILES is read from it.

Legend:
ABR/hearing testing = assay type: in vivo, guinea pig
Description: Prior to ABR recording, the tympanic membrane was inspected for otitis media using a surgical microscope. Animals with otitis media were excluded from the analysis. A TDT RZ6 system was used to record the auditory brainstem response (ABR). Animals were anaesthetized with zoletil (20 mg/kg, I.M.) and placed in a soundproof chamber. Three stainless needle recording electrodes were inserted just under the skin and connected to the appropriate input on the PA4LI low impedance headstage: Channel 1: Ipsilateral ear (same side as stimulus delivery); Reference: contralateral ear; Ground: Vertex (base of skull). A computer-controlled TDT RZ6 System was used to generate the auditory pure tone and power amplified before fed to a closed-field speaker to deliver sound stimuli. The same pure tone stimuli were repeated 512 times, the sound pressure levels were increased in a step of 10 dB SPL (5 dB around threshold) from 20 dB SPL to 90 dB SPL after every 512 repeated trials. The lowest sound level which induced a brainstem response was regarded as the threshold. The hearing thresholds were measured at 4, 24, and 32 kHz. ABR recording was performed before surgery or dosing and on the 7th and 14th day after the formulation dosing. The ABR was recorded first from the left ear and then from the right ear.

guinea pig RWM [1] = assay: RWM integrity after in vivo application; details: 21 days post trans-tympanic injection, 0.1% peptide HCl salt
Description: To assess the capacity for the RWM to recover after application of the […] peptide we record ABR thresholds with and without application of a 50 μL formulation including 0.1% […].HCL to the guinea pig RWM via trans-tympanic injection. […] Post-injection (21 days), the guinea pigs in both the […] exposed and control groups were sacrificed, and the temporal bone was removed as described in Example 5, section (a).

[2] = guinea pig, not told
[3] = cochlear perilymph exposure upon intratympanic administration; details: NT-3 formulation with permeation enhancer (peptide 1%)
round window membrane = assay: in vitro permeability assay (apparent permeability, flux); assay type: in vitro ADME; details: NT-3 incubated with 1% peptide; for NT-3 apparent permeability (Papp) compared to control: FIG. 22
Description: To this end, an in vitro permeability assay was designed to test the apparent permeability of NT-3 against that of other compounds, the experimental design of which is shown in FIG. 1. After the initial formation of tight junctions, which was evaluated using transepithelial electrical resistance (TEER), 100 μL artificial perilymph (AP+) with API was added to the insert, and 500 μL AP+ was added to the bath. Cultures were incubated at 37° C. and 20 μL samples were collected at various time points.
(§1) To further characterize the effects of peptide (XVI), the in vitro permeability assay was used to evaluate administration of NT-3 in either vehicle or 1% of peptide (XVI), as depicted in FIG. 18. In this experiment, cultures were incubated at 37° C. and 50 μL samples were collected at various time points. After 3.5 hours of incubation, the top and bottom media were collected separately and the insert was fixed for immunohistochemical staining to evaluate tight and adherens junctions.

[4] = test system: tight and adherens junctions; assay: immunohistochemical staining of tight and adherens junctions after the in vitro permeability assay; assay type: cell-based; details: 3.5 hours of incubation at 37° C., NT-3 in vehicle or with 1% peptide
Description: as §1

guinea pig RWM [5] = assay: tight junction integrity of excised RWM in ex vivo culture; assay type: cell-based; details: 1% peptide TFA salt in DMEM, 1 hour
Description: The […] peptide is hypothesized to interfere with cellular tight junctions. To assess if this mechanism is relevant to the RWM, we excise the RWM from adult guinea pigs (Elm Hill Labs, Chelmsford, Mass.) and stain for a variety of adherens and tight junction proteins. To extract the guinea pig RWM, the temporal bone was removed from freshly sacrificed guinea pig tissue and placed in PBS. An incision was then made in the roof of the bulla to expose the cochlea, followed by trimming of the temporal bone, bulla, and middle ear bones to expose the RWM. The round window niche was then removed from the cochlea and then cultured in DMEM with and without 1% […].TFA for 1 hour. This tissue was then fixed in a 4% PFA solution for 30 minutes followed by wash with PBS (3 times, 5-minute incubations). […]

[6] = background statement, test not described; cited from earlier work
[7] = background statement; cited from earlier work
[8] = listed as the peptide represented by formula (XVI)

In the case of `CC(C)C[C@H](NC(=O)[C@H](C)NC(=O)[C@H](CC(C)C)NC(=O)[C@H](CCCCN)NC(=O)[C@H](CC(C)C)NC(=O)[C@H](C)NC(=O)[C@H](CC(C)C)NC(=O)[C@@H](N)CCCCN)C(=O)N[C@@H](CCCCN)C(=O)N[C@@H](C)C(=O)N[C@@H](CC(C)C)C(=O)N[C@@H](CCCCN)C(=O)N[C@@H](CC(C)C)C(=O)N[C@@H](C)C(=O)N[C@@H](C)C(=O)N[C@@H](CC(C)C)C(=O)N[C@@H](CCCCN)C(=O)N[C@@H](CC(C)C)C(=O)N[C@@H](C)C(=O)O` (H-KLALKLALKALKLAALKLA-OH; N-terminus and C-terminus assumed), the “ABR hearing test, change relative to Day 0” value (ABR/hearing testing; 1 μL of 1% (w/v) peptide HCl salt in Poloxamer 407 (20% w/v), His buffer (pH6), Day 14) is reported as “no change relative to Day 0”, the ABR threshold shift (ABR/hearing testing; 50 μL formulation including 0.1% peptide HCl salt, trans-tympanic, 7 and 14 days) is reported as “no noticeable threshold shift” and the “tight junction proteins (actin, ZO-1, alpha-catenin) in RWM” value (guinea pig RWM [1]) is reported as “intact”.
For `OCc1ccccc1` [benzyl alcohol, reference compound], the “effect of permeation enhancer on cochlear NT-3 exposure / NT-3 delivery across the round window membrane” value [2] was “incapable of substantially improving NT-3 delivery across the round window membrane”.
In the case of `CC1(C)[C@@H](O[C@H]2O[C@H](C(=O)[O-])[C@@H](O)[C@H](O)[C@H]2O[C@@H]2O[C@H](C(=O)[O-])[C@@H](O)[C@H](O)[C@H]2O)CC[C@]2(C)[C@H]3C(=O)C=C4[C@@H]5C[C@@](C)(C(=O)O)CC[C@]5(C)CC[C@@]4(C)[C@]3(C)CC[C@@H]12.[K+].[K+]` [dipotassium glycyrrhizinate], the “effect of permeation enhancer on cochlear NT-3 exposure / NT-3 delivery across the round window membrane” value [3] is reported as “incapable of substantially improving NT-3 delivery across the round window membrane”.
With `CC(=O)NC(CCCCN)C(=O)NC(CC(C)C)C(=O)NC(C)C(=O)NC(CC(C)C)C(=O)NC(CCCCN)C(=O)NC(CC(C)C)C(=O)NC(C)C(=O)NC(CC(C)C)C(=O)NC(CCCCN)C(=O)NC(C)C(=O)NC(CC(C)C)C(=O)NC(CCCCN)C(=O)NC(CC(C)C)C(=O)NC(C)C(=O)NC(C)C(=O)NC(CC(C)C)C(=O)NC(CCCCN)C(=O)NC(CC(C)C)C(=O)NC(C)C(N)=O` (centres unmarked) [peptide (XVI)] (Ac-KLALKLALKALKLAALKLA-NH2; configuration not given here) the “NT-3 flux compared to control” value (round window membrane; FIG. 21) was “greater flux”, the “NT-3 apparent permeability (Papp) compared to control” value (round window membrane) was “greater” and the “NT-3 apparent permeability (Papp) compared to control” value (round window membrane; [8]) was “increased NT-3 permeability”. The “cell junction appearance (immunohistochemical staining)” value (shortened to “cell junction appearance”) [4] was “gaps could be observed between cells” and the “cell junction appearance” value [4, 8] was “gaps were observed between cells”.
With “KLALKLALKALKLAALKLA.TFA (also: TFA salt)” the “junction protein structure in RWM” value (guinea pig RWM [5]) was “disrupts occludin, ZO-1, and alpha-catenin, but not actin (as imaged via phalloidin), or beta-catenin structure”.
For neurotrophin-3 [NT-3], the EC50 [6] is listed as “less than 20 ng/ml”, the pI [7] is listed as 9.5 and the “cell junction appearance” value [4] is listed as “adherens junctions appeared normal”.
